# Like-named read-outs stand apart in the source and are kept apart here.
# Key:
# [1] = test system: intracellular amastigotes of T. cruzi; test: Activity against intracellular amastigotes in infected Vero cells (Dm28c-Luc, 72 h); format: cell-based, Trypanosoma cruzi; conditions: for IC50 / IC90: Trypanosoma cruzi; for IC50: Vero; for Intracellular Amastigotes SI: CC50 of Vero cells/IC50 of intracellular amastigote; for IC90: read-out: Trypanocidal Activity Intracellular Amastigotes IC90
# From the text: (§1) T. cruzi Dm28c clone genetically modified to express luciferase, kindly provided by Dr. Cristina Henriques from Oswaldo Cruz Institute–Fiocruz, was used in the drug assays. Trypomastigotes were harvested from T. cruzi-infected Vero cultures supernatants at 4th days post-infection (dpi) and used in the phenotypic screening assay. For intracellular amastigotes assays, Vero cells (2D and 3D cultures) were infected at a ratio of 10:1 parasites/host cells.
# The effect of the pyrazole derivatives against intracellular amastigotes was also evaluated after 72 h treatment (37 °C) with compound concentrations ranging from 0.04–100 µM [13]. Parasite viability, measured by luminescent signal, was determined after luciferin (300 µg/mL) addition. IC50 and IC90 values were calculated by linear regression. Selectivity index (SI) was calculated as the ratio of the CC50 to IC50 values. The non-toxic concentration of DMSO (less than 1% v/v) was used in all assays. A minimum of three independent assays was carried out in duplicate.
# [2] = test system: trypomastigote forms of T. cruzi; test: Phenotypic screening against T. cruzi trypomastigotes (Dm28c-Luc, luciferase viability, 24 h); format: cell-based, Trypanosoma cruzi; conditions: for IC50 / IC90: Trypanosoma cruzi, Dm28c-Luc, 24 h; for IC50: read-out: Trypanocidal Activity Trypomastigotes IC50; for Trypomastigotes SI: CC50 of Vero cells/IC50 of trypomastigote; for IC90: read-out: Trypanocidal Activity Trypomastigotes IC90
# From the text: as §1
# The phenotypic compound screening was performed using transgenic T. cruzi parasites expressing the firefly luciferase (Dm28c-Luc). Trypomastigotes (1 × 10^6 parasites/well) were treated for 24 h at 37 °C with the pyrazole derivatives and Bz (0.04–100 μM), followed by incubation with luciferin substrate (300 µg/mL) to determine parasite viability through luciferase activity. The concentration that reduces the number of viable parasites by 50% (IC50) or 90% (IC90) was calculated by linear regression. The luminescent signal was read on a Glomax-Multi Detection plate reader (Promega Corporation, Madison, WI, EUA)). At least three independent assays were performed in duplicate.
# [3] = Cytotoxicity in vitro assay (ATP, CellTiter Glo, 72 h); format: cell-based; conditions: African green monkey, Vero cells
# Method: Vero cells, obtained from the Rio de Janeiro Cell Bank (BCRJ code 0245), were cultured in RPMI-1640 supplemented with 10% fetal bovine serum (FBS) and 1 mM L-glutamine, as previously described. Vero cells were used for drug screening assays and to obtain trypomastigote forms of T. cruzi.
# Vero cells were used as a cellular model to analyze the toxic effect of pyrazole derivatives, series 1(a–l), 2(a–l), 3(a–n), 4(a–c), and 5(a–c), and Benznidazole (Bz) on mammalian cells. Briefly, the cells, plated on 96-well white opaque microplate (1.5 × 10^4 cells/well), were treated for 72 h at 37 °C with a wide range concentration (500–1.95 µM) of the pyrazole derivatives. The cell viability was determined by measuring ATP levels using the CellTiter Glo Kit (Promega Corporation, Madison, WI, EUA) followed by reading the luminescent signal on the Glomax-Multi Detection plate reader (Promega Corporation, Madison, WI, EUA)). All treatments and controls were performed at a low concentration of DMSO (≤1%). The 50% cytotoxic concentration values (CC50; the concentration of the compound that reduces 50% of the cell viability) were estimated by linear regression analysis. Three independent assays were performed in duplicate.
# [4] = negative log of the IC50 value in molar, read-out: Intracellular Amastigotes pIC50 (converted)
# [5] = 72 h, Vero cells infected with Dm28c-Luc, 72 h, read-out: Trypanocidal Activity Intracellular Amastigotes IC50
# [6] = Vero cells infected with Dm28c-Luc, 72 h
SMILES,melting point [°C],"IC50 [1, 4] [µM]",other results
"NC(=O)c1cnn(-c2ccccc2)c1 [Compound 1a, 1-phenyl-1H-pyrazole-4-carboxamide]",224 to 225,> 50.1,
"NC(=O)c1cnn(-c2cccc(Cl)c2)c1 [Compound 1b, 1-(3-chlorophenyl)-1H-pyrazole-4-carboxamide]",202 to 204,> 50.1,
"NC(=O)c1cnn(-c2ccc(Cl)cc2Cl)c1 [Compound 1c, 1-(2,4-dichlorophenyl)-1H-pyrazole-4-carboxamide]",184 to 186,> 50.1,
"NC(=O)c1cnn(-c2cc(Cl)cc(Cl)c2)c1 [Compound 1d, 1-(3,5-dichlorophenyl)-1H-pyrazole-4-carboxamide]",240 to 242,> 50.1,
"NC(=O)c1cnn(-c2ccc(Cl)c(Cl)c2)c1 [Compound 1e, 1-(3,4-dichlorophenyl)-1H-pyrazole-4-carboxamide]",190 to 192,> 50.1,
"NC(=O)c1cnn(-c2ccc(Cl)cc2)c1 [Compound 1f, 1-(4-chlorophenyl)-1H-pyrazole-4-carboxamide]",234 to 236,> 50.1,
"NC(=O)c1cnn(-c2ccc(F)cc2)c1 [Compound 1g, 1-(4-fluorophenyl)-1H-pyrazole-4-carboxamide]",244 to 246,> 50.1,
"NC(=O)c1cnn(-c2cccc(F)c2)c1 [Compound 1h, 1-(3-fluorophenyl)-1H-pyrazole-4-carboxamide]",206 to 208,> 50.1,
"NC(=O)c1cnn(-c2ccc(Br)cc2)c1 [Compound 1i, 1-(4-bromophenyl)-1H-pyrazole-4-carboxamide]",242 to 244,> 50.1,
"NC(=O)c1cnn(-c2cccc(Br)c2)c1 [Compound 1j, 1-(3-bromophenyl)-1H-pyrazole-4-carboxamide]",212 to 214,> 50.1,
"COc1ccc(-n2cc(C(N)=O)cn2)cc1 [Compound 1k, 1-(4-methoxyphenyl)-1H-pyrazole-4-carboxamide]",220 to 222,> 50.1,
"NC(=O)c1cnn(-c2cccc(Cl)c2Cl)c1 [Compound 1l, 1-(2,3-dichlorophenyl)-1H-pyrazole-4-carboxamide]",220 to 224,> 50.1,
"NC(=O)c1cnn(-c2cccc(Cl)c2)c1N [Compound 2b, 5-amino-1-(3-chlorophenyl)-1H-pyrazole-4-carboxamide]",168 to 170,> 70.8,
"NC(=O)c1cnn(-c2ccc(Cl)cc2Cl)c1N [Compound 2c, 5-amino-1-(2,4-dichlorophenyl)-1H-pyrazole-4-carboxamide]",212 to 214,> 70.8,
"NC(=O)c1cnn(-c2cc(Cl)cc(Cl)c2)c1N [Compound 2d, 5-amino-1-(3,5-dichlorophenyl)-1H-pyrazole-4-carboxamide]",184 to 186,> 70.8,
"NC(=O)c1cnn(-c2ccc(Cl)c(Cl)c2)c1N [Compound 2e, 5-amino-1-(3,4-dichlorophenyl)-1H-pyrazole-4-carboxamide]",204 to 212,> 70.8,

SMILES,melting point [°C],"IC50 [1, 4] [µM]",other results
"NC(=O)c1cnn(-c2ccc(Cl)cc2)c1N [Compound 2f, 5-amino-1-(4-chlorophenyl)-1H-pyrazole-4-carboxamide]",196 to 200,> 70.8,
"NC(=O)c1cnn(-c2ccc(F)cc2)c1N [Compound 2g, 5-amino-1-(4-fluorophenyl)-1H-pyrazole-4-carboxamide]",232 to 234,> 70.8,
"NC(=O)c1cnn(-c2cccc(F)c2)c1N [Compound 2h, 5-amino-1-(3-fluorophenyl)-1H-pyrazole-4-carboxamide]",178 to 182,> 70.8,
"NC(=O)c1cnn(-c2ccc(Br)cc2)c1N [Compound 2i, 5-amino-1-(4-bromophenyl)-1H-pyrazole-4-carboxamide]",138 to 142,> 70.8,
"NC(=O)c1cnn(-c2cccc(Br)c2)c1N [Compound 2j, 5-amino-1-(3-bromophenyl)-1H-pyrazole-4-carboxamide]",138 to 142,> 70.8,
"COc1ccc(-n2ncc(C(N)=O)c2N)cc1 [Compound 2k, 5-amino-1-(4-methoxyphenyl)-1H-pyrazole-4-carboxamide]",214 to 218,> 70.8,
"NC(=O)c1cnn(-c2cccc(Cl)c2Cl)c1N [Compound 2l, 5-amino-1-(2,3-dichlorophenyl)-1H-pyrazole-4-carboxamide]",160 to 164,> 70.8,
"c1ccc(-n2cc(C3=NCCN3)cn2)cc1 [Compound 3a, 4-(4,5-dihydro-1H-imidazol-2-yl)-1-phenyl-1H-pyrazole]",149 to 150,93.3,"IC50 [2]: > 100 µM; CC50 at 72 h [3]: > 500 µM; Intracellular Amastigotes SI [1]: >5.44; IC50 [1, 5]: 91.8 ± 2.03 µM; IC90 [1, 6]: > 100 µM"
"Clc1cccc(-n2cc(C3=NCCN3)cn2)c1 [Compound 3b, 1-(3-chlorophenyl)-4-(4,5-dihydro-1H-imidazol-2-yl)-1H-pyrazole]",120 to 124,28.2,"IC50 [2]: > 100 µM; CC50 at 72 h [3]: 267 ± 28.1 µM; fold drop in activity on moving Cl or Br to the meta position ([1]; 3b compared to 3g, 3k compared to 3j): five; Intracellular Amastigotes SI [1]: 9.48; IC50 [1, 5]: 28.2 ± 1.81 µM; IC90 [1, 6]: 86.6 ± 5.55 µM"
"Clc1ccc(-n2cc(C3=NCCN3)cn2)c(Cl)c1 [Compound 3c, 1-(2,4-dichlorophenyl)-4-(4,5-dihydro-1H-imidazol-2-yl)-1H-pyrazole]",110 to 111,56.2,"IC50 [2]: > 100 µM; CC50 at 72 h [3]: 409 ± 16.2 µM; Intracellular Amastigotes SI [1]: 7.21; IC50 [1, 5]: 56.6 ± 2.52 µM; IC90 [1, 6]: 94.6 ± 3.61 µM"
"Clc1cc(Cl)cc(-n2cc(C3=NCCN3)cn2)c1 [Compound 3d, 1-(3,5-dichlorophenyl)-4-(4,5-dihydro-1H-imidazol-2-yl)-1H-pyrazole]",83 to 84,55,"Trypomastigotes SI [2]: 5.78; IC50 [2]: 66.3 ± 5.53 µM; IC90 [2]: 93.5 ± 1.56 µM; CC50 at 72 h [3]: 384 ± 23 µM; Intracellular Amastigotes SI [1]: 6.99; IC50 [1, 5]: 54.9 ± 7.12 µM; IC90 [1, 6]: > 100 µM"
"Clc1ccc(-n2cc(C3=NCCN3)cn2)cc1Cl [Compound 3e, 1-(3,4-dichlorophenyl)-4-(4,5-dihydro-1H-imidazol-2-yl)-1H-pyrazole]",185 to 186,75.9,"Trypomastigotes SI [2]: 7.39; IC50 [2]: 64.9 ± 2.85 µM; IC90 [2]: 93.74 ± 0.73 µM; CC50 at 72 h [3]: 480 ± 21.7 µM; Intracellular Amastigotes SI [1]: 6.26; IC50 [1, 5]: 76.5 ± 8.79 µM; IC90 [1, 6]: > 100 µM"
"Clc1cccc(Cl)c1-n1cc(C2=NCCN2)cn1 [Compound 3f, 1-(2,6-dichlorophenyl)-4-(4,5-dihydro-1H-imidazol-2-yl)-1H-pyrazole]",221 to 223,81.3,"IC50 [2]: > 100 µM; CC50 at 72 h [3]: > 500 µM; Intracellular Amastigotes SI [1]: >6; IC50 [1, 5]: 82 ± 2.52 µM; IC90 [1, 6]: > 100 µM"
"Fc1ccc(-n2cc(C3=NCCN3)cn2)cc1 [Compound 3h, 4-(4,5-dihydro-1H-imidazol-2-yl)-1-(4-fluorophenyl)-1H-pyrazole]",210 to 212,64.6,"IC50 [2]: > 100 µM; CC50 at 72 h [3]: > 500 µM; IC50 [1, 5]: 64.5 ± 3.81 µM; IC90 [1, 6]: > 100 µM"
"Fc1cccc(-n2cc(C3=NCCN3)cn2)c1 [Compound 3i, 4-(4,5-dihydro-1H-imidazol-2-yl)-1-(3-fluorophenyl)-1H-pyrazole]",164 to 167,64.6,"IC50 [2]: > 100 µM; CC50 at 72 h [3]: > 500 µM; IC50 [1, 5]: 64.1 ± 7.09 µM; IC90 [1, 6]: > 100 µM"
